In patent US20070110743A1, “Methods of protein production using anti-senescence compounds” (Wyeth, priority 2005, published 2007):

Columns and labels:
MYO-29 cell line [1] = experiment: Carnosine addition to 1 L fed-batch bioreactor cell culture (Example 2); type: cell-based; details: 20 mM carnosine added day 4
Experimental: Five bioreactors were inoculated with 0.9×10^6 cells/ml with a 1 L working volume of a MYO-29 cell line in a serum free inoculation medium. All the bioreactors were fed 5% (v/v) of a feed medium on days 3, 5, 7, and 12 of a 14-day run. A day 10 feed of 5% (v/v) of the feed medium was added to two of the control bioreactors and one containing carnosine. The conditions of the bioreactors were held at a temperature of 37° C., a pH of 7.00, and a dissolved oxygen level at 30% air saturation.
The bioreactors were harvested on day 14 of the production run. Samples were taken throughout the run to monitor the progress of the cell culture medium. The controls performed as expected.

MYO-29 cell line [2] = experiment: Different concentrations of carnosine in 1 L bioreactor cell culture (Example 3); type: cell-based
Experimental: Four bioreactors were inoculated with 0.4×10^6 cells/ml with a 1 L working volume of a MYO-29 cell line in a serum free inoculation medium. All the bioreactors were all fed 5% (v/v) of a feed medium on day 7 of the 14-day run. The conditions of the bioreactor were held at a temperature of 37° C., a pH of 7.00, and a dissolved oxygen level at 30% air saturation.
All cells were cultured for four days at which point the temperature was shifted in all of the bioreactors to 31° C. […] All bioreactors were harvested on day 12 of the production run. Samples were taken throughout the run to monitor the progress of the cell culture medium. The controls performed generally as expected, except one control had slightly lower daily viabilities than previously seen.

[3] = test system: human diploid fibroblasts and human fetal lung (primary cell lines); details: concentration of 20 mM in culture media; cited from earlier work
[4] = test system: human or rodent transformed and neoplastic cells; details: cited from earlier work
[5] = addition of the chemical agent to the culture; cited from earlier work

SMILES: NCCC(=O)N[C@@H](Cc1cnc[nH]1)C(=O)O [carnosine]
- cumulative specific cellular productivity (MYO-29 cell line [1]; 14-day run): better
- daily titer at the time of harvest (MYO-29 cell line [1]; harvest day 14): higher titer
- daily cell viability upon being harvested (MYO-29 cell line [1]; harvest day 14, compared to bioreactors without carnosine): higher
- daily titer (MYO-29 cell line [2]; 20 mM or 40 mM carnosine added day 4, compared with one of the controls): similar
- daily cell viability upon being harvested (MYO-29 cell line [2]; 20 mM or 40 mM carnosine added day 4, harvest day 12, compared to two control bioreactors): higher viability
- daily viable cell density (MYO-29 cell line [2]; 20 mM or 40 mM carnosine added day 4, versus controls): fairly similar with the exception of the bioreactor with 4 mM of carnosine
- cumulative specific cellular productivity (MYO-29 cell line [2]; 40 mM carnosine added day 4): higher
- lifespan of cells [3]: extend the lifespan
- cytotoxic effects ([4]; dialyzed fetal calf serum with low molecular weight compounds removed): increased the cytotoxic effects
- cytotoxicity ([4]; in Minimal Essential Medium (MEM), lower glucose levels): cytotoxic

SMILES: CCCC(=O)[O-].[Na+] [sodium butyrate]
- cell growth and viable cell number [5]: cell growth ceases and the viable cell number decreases
